What was measured:
[1] = compared with haloperidol, fluphenazine and chlorpromazine; cited from earlier work
[2] = test system: A10 neurons (the mesolimbic and mesocortical pathways); conditions: cited from earlier work
dopamine D2 receptors = dopamine D2 receptors (Homo sapiens, UniProt P14416); conditions: cited from earlier work
[3] = test system: serotonin 5-HT2 receptors; conditions: cited from earlier work
[4] = test system: patients with schizophrenia; assay: Twelve-month open-label study of sertindole: time to sustained response; type: in vivo, human; conditions: 4-24 mg once daily for up to one year; 358 patients
Description: These findings are further corroborated by an exploratory analysis of clinical data obtained from a twelve-month open-label study ([…] et al., “Identification of Potential Predictors of Sertindole Response in Patients with Schizophrenia”, to be published). In line with the emerging consensus criteria for response to antipsychotic treatment in schizophrenia ([…] et al., Am J Psychiatry 162:441-449, March 2005), the objective of this exploratory analysis is to identify potential predictors of response to sertindole in patients with schizophrenia. The study assessed the safety and efficacy of sertindole doses (4-24 mg) administered once daily for up to one year in US patients with schizophrenia.

histaminergic receptors = conditions: cited from earlier work
α2-adrenergic receptors = conditions: cited from earlier work
[5] = test system: A9 dopamine neurons (the nigrostriatal pathway); conditions: cited from earlier work
[6] = test system: patients with schizophrenia; assay: Sertindole Cohort Prospective (SCoP) study: fatal or non-fatal suicide attempts, sertindole vs risperidone; type: in vivo, human; conditions: for Hazard Ratio SERT as compared to RISP, committing or attempting suicide: Cox proportional hazards model adjusting for age, gender, history of suicide attempt, duration of schizophrenia; for Committed or attempted suicide (rate/100 PYE): WRT period plus 30 days; for Hazard ratio SERT/RISP, committed or attempted suicide: log-rank test, WRT plus 30 days
Description: (§1) The Sertindole Cohort Prospective (SCoP) study was designed as a multi-national, multi-centre, prospective, randomized, open-label, two parallel-group, active-controlled study in human subjects with schizophrenia. The objective of the study is to compare the safety of sertindole with the safety of another standard antipsychotic drug (in this case risperidone) under normal conditions of use. In addition, the study collects information on fatal or non-fatal suicide attempts. The study was initiated in 2002 and is still ongoing.
(§2) To ensure that the study population is representative of patients with schizophrenia, only a limited number of selection criteria are imposed. In particular, patients are required to fulfil the criteria specified in the SmPCs (Core Summary of Product Characteristics) for both sertindole and risperidone; they are not to have received either sertindole or risperidone as their treatment immediately before entering the study, and they require treatment with but a single anti-schizophrenia drug product.
as §1, with “is” for “was designed as”, “multinational,” for “multi-national,”, “patients” for “human subjects”
The data in the study are reported for different periods. The Only-Randomized-Treatment-Period (ORT) covers the time the patient is receiving antipsychotic monotherapy with the randomized trial medication. However, patients can also be treated in combination with another antipsychotic if this is clinically necessary. When the patient receives an additional antipsychotic, the patient is censored and the data are reported for the Whole-Randomized-Treatment period (WRT). The primary period for reporting is the so-called Whole-Randomized-Treatment+30 period (WRT+30), which covers the time during which the patient receives randomized treatment plus 30 days after treatment discontinuation. Finally, the period during which the patient is followed even after the treatment has been stopped is called the Whole-Follow-up-Period (WFP).
as §2, with “fulfill” for “fulfil”, “SmPCs” for “SmPCs (Core Summary of Product Characteristics)”, “antipsychotic drug.” for “anti-schizophrenia drug product.”
Throughout the treatment period patients are dosed according to the treatment recommendations in their respective SmPCs. […]
Regarding attempted suicide, the analysis comprised only those events for which the investigators confirmed that the patients actually tried to commit suicide. Events such as intentional overdose and intentional self-injury were clarified by the investigators and were not included in the analysis unless the investigators confirmed that they were real suicide attempts. The included events were coded as ‘suicide attempt’ in the database.
The above definition of attempted suicide has the advantage of making it possible combine this event with completed suicide and to analyze the time until either event occurs. This can be done since all patients are randomised to start new treatment with either sertindole or risperidone.
All events occurring in the Whole Randomised Treatment (WRT) period plus 30 days were considered for analysis, up until the data cut-off. The WRT period is the period from start to stop of randomised treatment. The null hypothesis of equality of hazards between treatment groups was tested using the log-rank test. […]

[7] = test system: patient population of clinical trials of atypical antipsychotics; conditions: between sertindole, olanzapine and risperidone; cited from earlier work
muscarinic receptors = conditions: cited from earlier work
α1-adrenergic receptors = conditions: cited from earlier work

Chain of dopamine D2 receptors (P14416 whole entry): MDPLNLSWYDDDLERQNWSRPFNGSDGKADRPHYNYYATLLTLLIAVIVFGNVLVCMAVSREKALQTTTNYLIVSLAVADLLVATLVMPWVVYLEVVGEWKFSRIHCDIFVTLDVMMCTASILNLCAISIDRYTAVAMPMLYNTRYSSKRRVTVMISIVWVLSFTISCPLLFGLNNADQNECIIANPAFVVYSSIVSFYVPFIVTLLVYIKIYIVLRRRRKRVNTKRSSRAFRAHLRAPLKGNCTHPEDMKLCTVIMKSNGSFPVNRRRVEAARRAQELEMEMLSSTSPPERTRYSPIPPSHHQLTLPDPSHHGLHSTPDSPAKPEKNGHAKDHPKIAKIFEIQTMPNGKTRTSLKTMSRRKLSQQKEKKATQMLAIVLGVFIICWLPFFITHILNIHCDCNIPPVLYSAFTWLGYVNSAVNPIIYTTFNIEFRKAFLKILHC

Question: For `O=C1NCCN1CCN1CCC(c2cn(-c3ccc(F)cc3)c3ccc(Cl)cc23)CC1` [sertindole], which Adverse effects [1] is on record?
Answer: fewer adverse effects

Question: What about the “Activity in A10 neurons” value [2] of the same compound?
Answer: retains activity

Question: And the “Affinity for dopamine D2 receptors” value (dopamine D2 receptors)?
Answer: high affinity

Question: What about the “Affinity for serotonin 5-HT2 receptors” value [3] of the same compound?
Answer: high affinity

Question: And the “Patients achieving sustained response (CGI-S<=3 and CGI-I<=2, sustained at least 8 weeks)” value [4]?
Answer: 125 patients

Question: What about the “Binding to histaminergic receptors” value (histaminergic receptors) of the same compound?
Answer: limited binding

Question: What about the “Binding to α2-adrenergic receptors” value (α2-adrenergic receptors) of the same compound?
Answer: limited binding

Question: What about the “Depolarization inactivation in A9 dopamine neurons” value [5] of the same compound?
Answer: does not induce depolarization inactivation

Question: What about the “Hazard Ratio SERT as compared to RISP, committing or attempting suicide” value ([6]; as of Nov. 1, 2007) of the same compound?
Answer: approximately 0.6

Question: And the “Hazard Ratio SERT as compared to RISP, committing or attempting suicide” value ([6]; as of Nov. 1, 2007, listed as SERT)?
Answer: 0.614

Question: What about the “Committed or attempted suicide (rate/100 PYE)” value ([6]; as of Nov. 1, 2006) of the same compound?
Answer: 0.85 rate/100 PYE

Question: What about the “Committed or attempted suicide (rate/100 PYE)” value ([6]; as of Nov. 1, 2007) of the same compound?
Answer: 0.62 rate/100 PYE

Question: What about the “Hazard ratio SERT/RISP, committed or attempted suicide” value (“Hazard ratio SERT/RISP” below) ([6]; data cut-off 11.1 2007) of the same compound?
Answer: approximately 0.7

Question: And the “Hazard ratio SERT/RISP” value ([6]; data cut-off 11.1 2007, listed as SERT)?
Answer: 0.69

Question: What about the “Hazard ratio SERT/RISP” value ([6]; data up until 11 Jan. 2006) of the same compound?
Answer: approximately 0.7

Question: And the “Hazard ratio SERT/RISP” value ([6]; data up until 11 Jan. 2006, listed as SERT)?
Answer: 0.72

Question: And the “Incidence of suicide attempts (both fatal and non-fatal) in comparison with risperidone” value ([6]; schizophrenic patients on maintenance dose sertindole therapy)?
Answer: reduced significantly

Question: What about the “Short-term (450 days) hazard functions (mortality)” value (“Short-term” for short) [7] of the same compound?
Answer: no obvious difference

Question: What about the “Binding to muscarinic receptors” value (muscarinic receptors) of the same compound?
Answer: limited binding

Question: And the “Affinity for α1-adrenergic receptors” value (α1-adrenergic receptors)?
Answer: high affinity

Question: With `Cc1nc2n(c(=O)c1CCN1CCC(c3noc4cc(F)ccc34)CC1)CCCC2` [risperidone] as the compound, how does the “Event rate in risperidone group relative to sertindole group (times higher)” value ([6]; Cox proportional hazards model, data cut-off 11.1 2007) read?
Answer: approximately 1.7 times

Question: What about the “Committed or attempted suicide (rate/100 PYE)” value ([6]; as of Nov. 1, 2006) of the same compound?
Answer: 1.15 rate/100 PYE

Question: What about the “Committed or attempted suicide (rate/100 PYE)” value ([6]; as of Nov. 1, 2007) of the same compound?
Answer: 0.92 rate/100 PYE

Question: What about the “Event rate in risperidone group relative to sertindole group (times higher)” value ([6]; data cut-off 11.1 2007, unadjusted) of the same compound?
Answer: ~1.5 times

Question: What about the “Event rate in risperidone group relative to sertindole group (times higher)” value ([6]; data up until 11 Jan. 2006) of the same compound?
Answer: ~1.5 times

Question: And the “Short-term” value [7]?
Answer: no obvious difference

Question: With `Cc1cc2c(s1)Nc1ccccc1N=C2N1CCN(C)CC1` [olanzapine] as the compound, how does the “Short-term” value [7] read?
Answer: no obvious difference

From patent US20070281925A1, “USE OF SERTINDOLE FOR THE PREVENTIVE TREATMENT OF SUICIDAL BEHAVIOUR” (H. Lundbeck A/S, priority 2006, published 2007)
